According to US11787810B2, “Diacylglyceride O-acyltransferase 2 inhibitors” (Merck Sharp & Dohme Corp., priority 2020, dated 2023):

The compounds below were run against human DGAT2 (hDGAT2) (Homo sapiens (Human), UniProt Q96PD7) (assay: DGAT2 enzymatic activity assay (13C18-triolein formation, LC/MS/MS)). Conditions: hDGAT2 Sf-9 membrane prep, 25 μM diolein, 5 μM 13C oleoyl-CoA; read-out: Human DGAT2 IC50.
Assay type: biochemical
Description: Sf-9 insect cells were maintained in Grace's insect cell culture medium with 10% heated-inactivated fetal bovine serum, 1% Pluronic F-68 and 0.14 μg/ml Kanamycine sulfate at 27° C. in a shaker incubator. After infection with untagged baculovirus expressing human DGAT2 (hDGAT2) at multiplicity of infection (MOI) 3 for 48 hours, cells were harvested. Cell pellets were suspended in buffer containing 10 mM Tris-HCl pH 7.5, 1 mM EDTA, 250 mM sucrose and Complete Protease Inhibitor Cocktail (Sigma Aldrich), and sonicated on ice. Cell debris were removed by centrifugation at 2000×g for 15 minutes. Membrane fractions were isolated by ultracentrifugation (100,000×g), resuspended in the same buffer, and frozen (−80° C.) for later use. The protein concentration was determined with the Pierce™ BCA Protein Assay Kit (Thermo Fisher Scientific). Expression of protein levels was analyzed by immunoblotting with rabbit anti-DGAT2 antibody (Abcam, ab102831) and donkey anti-rabbit IgG H&L Alexa Fluor® 647 (Abcam, ab150075) followed by detection using Typhoon FLA9000 (GE Healthcare).
LC/MS/MS analyses were performed using Thermal Fisher's LX4-TSQ Vantage system. This system consists of an Agilent binary high-performance liquid chromatography (HPLC) pumps and a TSQ Vantage triple quadrupole MS/MS instrument. For each sample, 2 μL samples from the top organic layer of in-plate liquid-liquid extraction were injected onto a Thermo Betabasic C4 column (2.1 mm×20 mm, 5 μm particle size). The samples were then eluted using the following conditions; mobile phase: Isopropanol:acetonitrile/10 mM ammonium formate=50/35/15 (v/v/v), flow rate: 0.8 mL/min, temperature: 25° C. Data was acquired in positive mode using a heated electrospray ionization (HESI) interface. The operational parameters for the TSQ Vantage MS/MS instrument were a spray voltage of 3000 V, capillary temperature of 280° C., vaporizer temperature 400° C., sheath gas 45 arbitrary unit, Aux gas 10 arbitrary units, S-lens 165 and collision gas 1.0 mTorr. […] (SRM) chromatograms of ^13C18-triolein (Q1: 920.8>Q3:621.3) and internal standard ^13C21-triolein (Q1: 923.8>Q3:617.3) were collected for 33 sec. The peak area was integrated by Xcalibur Quan software. The ratio between the ^13C18triolein generated in the reaction and spiked in internal standard ^13C21-triolein was used to generate percentage inhibition and IC50 values. Compound percentage inhibition was calculated by the following formula: Inhibition %=1-[(compound response−low control)/(high control−low control)]×100%. Potent compounds were titrated and IC50 were calculated by 4 parameter sigmoidal curve fitting formula.
DGAT2 activity was determined by measuring the amount of enzymatic product ^13C18-triolein (^13C-1,2,3-Tri(cis-9-octadecenoyl)glycerol) using the membrane prep mentioned above. The assay was carried out in ABgene 384-well assay plates in a final volume of 25 μL at rt. The assay mixture contained the following: assay buffer (100 mM Tris·Cl, pH 7.0, 20 mM MgCl2, 5% ethanol), 25 μM of diolein, 5 μM of ^13C oleoyl-CoA and 8 ng/μL of DGAT2 membrane.

Chain of human DGAT2 (hDGAT2) (Q96PD7 whole entry): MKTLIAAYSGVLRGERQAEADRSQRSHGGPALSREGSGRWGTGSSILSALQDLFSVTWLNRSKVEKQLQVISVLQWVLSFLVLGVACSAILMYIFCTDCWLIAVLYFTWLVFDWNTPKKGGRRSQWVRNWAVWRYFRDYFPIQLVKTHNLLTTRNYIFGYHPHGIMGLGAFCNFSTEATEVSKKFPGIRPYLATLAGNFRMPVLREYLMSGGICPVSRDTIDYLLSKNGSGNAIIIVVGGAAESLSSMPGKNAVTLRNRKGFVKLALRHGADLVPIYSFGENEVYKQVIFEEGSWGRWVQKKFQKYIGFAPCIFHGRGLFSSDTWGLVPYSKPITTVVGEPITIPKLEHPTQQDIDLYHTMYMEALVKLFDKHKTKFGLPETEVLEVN

IC50 [nM] | SMILES
0.8 | C[C@]1(NC(=O)c2cnc3c(-c4cccc(OC(F)F)c4)nn(-c4ccc(F)cc4)c3c2)CCS(=O)(=O)C1 [Example 1, (S)-3-(3-(difluoromethoxy)phenyl)-1-(4-fluorophenyl)-N-(3-methyl-1,1-dioxidotetrahydrothiophen-3-yl)-1H-pyrazolo[4,3-b]pyridine-6-carboxamide]
45 | O=C(N[C@@H]1CCC[C@H]1N1CCOCC1)c1cnc2c(-c3cccc(OC(F)F)c3)cn(-c3ncc(F)cn3)c2c1 [Example 7, 3-(3-(difluoromethoxy)phenyl)-1-(5-fluoropyrimidin-2-yl)-N-((1R,2R)-2-morpholinocyclopentyl)-1H-pyrrolo[3,2-b]pyridine-6-carboxamide]
6.8 | C[C@]1(NC(=O)c2cnc3c(-c4cccc(OC(F)F)c4)cn(-c4ccc(F)cc4)c3c2)CCS(=O)(=O)C1 [Example 9, (S)-3-(3-(difluoromethoxy)phenyl)-1-(4-fluorophenyl)-N-(3-methyl-1,1-dioxidotetrahydrothiophen-3-yl)-1H-pyrrolo[3,2-b]pyridine-6-carboxamide]
189 | N[C@H]1CCC[C@H]1NC(=O)c1cnc2c(-c3cccc(OC(F)F)c3)cn(-c3ncc(F)cn3)c2c1 [Example 20, N-((1R,2S)-2-aminocyclopentyl)-3-(3-(difluoromethoxy)phenyl)-1-(5-fluoropyrimidin-2-yl)-1H-pyrrolo[3,2-b]pyridine-6-carboxamide]
50 | C[C@]1(NC(=O)c2cnc3c(-c4cccc(OC(F)F)c4)cn(-c4ccc(F)cc4)c3n2)CCS(=O)(=O)C1 [Example 24, (S)-7-(3-(difluoromethoxy)phenyl)-5-(4-fluorophenyl)-N-(3-methyl-1,1-dioxidotetrahydrothiophen-3-yl)-5H-pyrrolo[2,3-b]pyrazine-3-carboxamide]
4.7 | CC(C)n1nc(-c2cccc(OC(F)F)c2)c2ncc(C(=O)NC3(C)CS(=O)(=O)C3)cc21 [Example 25, 3-[3-(difluoromethoxy)phenyl]-1-isopropyl-N-(3-methyl-1,1-dioxidothietan-3-yl)-1H-pyrazolo[4,3-b]pyridine-6-carboxamide]
50 | CC(C)n1cc(-c2cccc(OC(F)F)c2)c2ncc(C(=O)NC3(C)CS(=O)(=O)C3)cc21 [Example 37, 3-(3-(difluoromethoxy)phenyl)-1-isopropyl-N-(3-methyl-1,1-dioxidothietan-3-yl)-1H-pyrrolo[3,2-b]pyridine-6-carboxamide]
38 | CC(C)n1nc(-c2cccc(OC(F)F)c2)c2ncc(C(=O)NC(C)(C)CO)cc21 [Example 42, 3-(3-(difluoromethoxy)phenyl)-N-(1-hydroxy-2-methylpropan-2-yl)-1-isopropyl-1H-pyrazolo[4,3-b]pyridine-6-carboxamide]
27 | CCOc1cc(-c2nn(C(C)C)c3cc(C(=O)NC4(C)CS(=O)(=O)C4)cnc23)c(F)cn1 [Example 126, 3-(2-ethoxy-5-fluoropyridin-4-yl)-1-isopropyl-N-(3-methyl-1,1-dioxidothietan-3-yl)-1H-pyrazolo[4,3-b]pyridine-6-carboxamide]
298 | CC(C)n1nc(-c2cccc(C3(O)CC3)c2)c2ncc(C(=O)NC3(C)CS(=O)(=O)C3)cc21 [Example 127, 3-(3-(1-Hydroxycyclopropyl)phenyl)-1-isopropyl-N-(3-methyl-1,1-dioxidothietan-3-yl)-1H-pyrazolo[4,3-b]pyridine-6-carboxamide]
5450 | COC1(c2cccc(-c3nn(C(C)C)c4cc(C(=O)NC5(C)CS(=O)(=O)C5)cnc34)c2)CC1 [Example 128, 1-isopropyl-3-(3-(1-methoxycyclopropyl)phenyl)-N-(3-methyl-1,1-dioxidothietan-3-yl)-1H-pyrazolo[4,3-b]pyridine-6-carboxamide]
97 | CC1(NC(=O)c2cnc3c(-c4cccc(OC(F)F)c4)nn(C(C)(C)C(C)(C)O)c3c2)CS(=O)(=O)C1 [Example 129, 3-(3-(difluoromethoxy)phenyl)-1-(3-hydroxy-2,3-dimethylbutan-2-yl)-N-(3-methyl-1,1-dioxidothietan-3-yl)-1H-pyrazolo[4,3-b]pyridine-6-carboxamide]
33 | CN1CCC(n2nc(-c3cccc(OC(F)F)c3)c3ncc(C(=O)NC4(C)CS(=O)(=O)C4)cc32)CC1 [Example 134, 3-(3-(Difluoromethoxy)phenyl)-N-(3-methyl-1,1-dioxidothietan-3-yl)-1-(1-methylpiperidin-4-yl)-1H-pyrazolo[4,3-b]pyridine-6-carboxamide]

Same assay, conditions: table head without 'Human'; same membrane assay; read-out: DGAT2 IC50

IC50 [nM] | SMILES
110 | CC(n1nc(-c2cc(OC(F)F)ccc2F)c2ncc(C(=O)NC3(C)CS(=O)(=O)C3)cc21)C(C)(C)O (single isomer, unassigned) [Example 131b, 3-(5-(difluoromethoxy)-2-fluorophenyl)-1-(3-hydroxy-3-methylbutan-2-yl)-N-(3-methyl-1,1-dioxidothietan-3-yl)-1H-pyrazolo[4,3-b]pyridine-6-carboxamide]
231 | CC(n1nc(-c2cc(OC(F)(F)F)ccc2F)c2ncc(C(=O)NC3(C)CS(=O)(=O)C3)cc21)C(C)(C)O (single isomer, unassigned) [Example 132a, 3-(2-fluoro-5-(trifluoromethoxy)phenyl)-1-(3-hydroxy-3-methylbutan-2-yl)-N-(3-methyl-1,1-dioxidothietan-3-yl)-1H-pyrazolo[4,3-b]pyridine-6-carboxamide]
215 | CC(n1nc(-c2cc(OC(F)(F)F)ccc2F)c2ncc(C(=O)NC3(C)CS(=O)(=O)C3)cc21)C(C)(C)O (single isomer, unassigned) [Example 132b, 3-(2-fluoro-5-(trifluoromethoxy)phenyl)-1-(3-hydroxy-3-methylbutan-2-yl)-N-(3-methyl-1,1-dioxidothietan-3-yl)-1H-pyrazolo[4,3-b]pyridine-6-carboxamide]
862 | CC(n1nc(-c2cc(OC(F)F)ncc2F)c2cnc(C(=O)NC3(C)CS(=O)(=O)C3)cc21)C(C)(C)O (single isomer, unassigned) [Example 133a, 3-(2-(difluoromethoxy)-5-fluoropyridin-4-yl)-1-(3-hydroxy-3-methylbutan-2-yl)-N-(3-methyl-1,1-dioxidothietan-3-yl)-1H-pyrazolo[4,3-c]pyridine-6-carboxamide]
15 | CC(n1nc(-c2cc(OC(F)F)ncc2F)c2cnc(C(=O)NC3(C)CS(=O)(=O)C3)cc21)C(C)(C)O (single isomer, unassigned) [Example 133b, 3-(2-(difluoromethoxy)-5-fluoropyridin-4-yl)-1-(3-hydroxy-3-methylbutan-2-yl)-N-(3-methyl-1,1-dioxidothietan-3-yl)-1H-pyrazolo[4,3-c]pyridine-6-carboxamide]
